Where two headings read alike, the source gives them in different places. Each block holds one compound with its values, some of them ahead of it.
Legend:
c-kit = target: T1, c-kit (Homo sapiens, UniProt P10721); assay: Inhibitory activity against c-kit autophosphorylation (MO7e cells, h-SCF); format: cell-based; details: for IC50: MO7e cells, read-out: c-kit IC50; for inhibition at 1 µM: Mo7e, at 1000 nM
T1 construct: MO7e (human megakaryocytic leukemia cell line) which had been arrested for 20 hr; endogenous in cells; host or cells: MO7e human megakaryocytic leukemia cell line
Procedure, shortened: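 MO7e cells, arrested for 20 hr, were pretreated with test compound in DMSO for 1 hr and then stimulated with 50 ng/ml h-SCF for 5 min before lysis. Lysates were captured on immobilized anti-phosphotyrosine PY-20, probed with anti-c-kit antibody and HRP anti-rabbit IgG, and read colorimetrically at 450 nm.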

PDGF-Ra = target: T2, PDGF-Ra (Homo sapiens, UniProt P16234); assay: Inhibitory activity against PDGF-Ra phosphorylation by PDGF-AA stimulation using G292; format: cell-based; details: for IC50: > means inhibition at indicated concentration not more than 50%, < and << not less than 50%, read-out: PDGF (E) IC50; for inhibition at 0.1 µM: G292, at 100 nM, read-out: PDGF (E) inhibition (%) at 100 nM
T2 construct: host or cells: G-292 human osteosarcoma cells
Procedure, shortened: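 G-292 human osteosarcoma cells in 0.1% FBS medium overnight, given compound for 1 hr at 37° C, then PDGF-AA 50 ng/ml for 5 min. Lysates captured on anti-phosphotyrosine (PY-20) plates and probed with anti-PDGF-Ra plus HRP secondary; absorbance at 450 nm.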

[1] = figure in parentheses in >100( )
[2] = figure within parentheses in >100( )
[3] = figure within parentheses in −( ) or >1000( )

T2 sequence (P16234 24-1089): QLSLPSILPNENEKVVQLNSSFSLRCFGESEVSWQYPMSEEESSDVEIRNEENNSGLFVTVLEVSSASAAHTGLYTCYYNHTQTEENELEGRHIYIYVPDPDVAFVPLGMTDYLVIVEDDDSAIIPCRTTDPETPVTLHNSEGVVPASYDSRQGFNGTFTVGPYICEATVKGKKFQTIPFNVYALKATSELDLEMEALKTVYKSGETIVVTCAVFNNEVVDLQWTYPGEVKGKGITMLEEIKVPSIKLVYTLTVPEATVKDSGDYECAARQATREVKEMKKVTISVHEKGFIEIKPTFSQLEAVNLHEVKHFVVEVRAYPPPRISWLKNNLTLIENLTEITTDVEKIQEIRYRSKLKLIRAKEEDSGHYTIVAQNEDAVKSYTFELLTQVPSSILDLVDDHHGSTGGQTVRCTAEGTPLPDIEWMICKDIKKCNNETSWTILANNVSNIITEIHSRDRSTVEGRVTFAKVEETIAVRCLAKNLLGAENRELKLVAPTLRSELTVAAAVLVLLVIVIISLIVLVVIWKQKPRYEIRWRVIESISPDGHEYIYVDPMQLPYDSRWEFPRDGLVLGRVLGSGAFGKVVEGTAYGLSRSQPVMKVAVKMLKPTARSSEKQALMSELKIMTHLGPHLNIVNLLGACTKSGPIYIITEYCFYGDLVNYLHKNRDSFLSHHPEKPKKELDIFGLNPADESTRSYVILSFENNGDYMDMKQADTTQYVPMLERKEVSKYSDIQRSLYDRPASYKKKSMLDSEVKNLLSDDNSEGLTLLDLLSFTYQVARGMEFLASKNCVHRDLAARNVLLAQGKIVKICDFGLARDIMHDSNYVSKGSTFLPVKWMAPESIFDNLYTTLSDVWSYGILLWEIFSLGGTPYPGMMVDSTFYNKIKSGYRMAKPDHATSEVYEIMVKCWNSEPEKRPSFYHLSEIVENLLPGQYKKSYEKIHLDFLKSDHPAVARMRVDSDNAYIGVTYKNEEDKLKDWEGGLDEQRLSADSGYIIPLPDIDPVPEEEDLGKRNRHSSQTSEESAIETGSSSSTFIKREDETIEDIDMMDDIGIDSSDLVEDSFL
T1 sequence (P10721 26-976): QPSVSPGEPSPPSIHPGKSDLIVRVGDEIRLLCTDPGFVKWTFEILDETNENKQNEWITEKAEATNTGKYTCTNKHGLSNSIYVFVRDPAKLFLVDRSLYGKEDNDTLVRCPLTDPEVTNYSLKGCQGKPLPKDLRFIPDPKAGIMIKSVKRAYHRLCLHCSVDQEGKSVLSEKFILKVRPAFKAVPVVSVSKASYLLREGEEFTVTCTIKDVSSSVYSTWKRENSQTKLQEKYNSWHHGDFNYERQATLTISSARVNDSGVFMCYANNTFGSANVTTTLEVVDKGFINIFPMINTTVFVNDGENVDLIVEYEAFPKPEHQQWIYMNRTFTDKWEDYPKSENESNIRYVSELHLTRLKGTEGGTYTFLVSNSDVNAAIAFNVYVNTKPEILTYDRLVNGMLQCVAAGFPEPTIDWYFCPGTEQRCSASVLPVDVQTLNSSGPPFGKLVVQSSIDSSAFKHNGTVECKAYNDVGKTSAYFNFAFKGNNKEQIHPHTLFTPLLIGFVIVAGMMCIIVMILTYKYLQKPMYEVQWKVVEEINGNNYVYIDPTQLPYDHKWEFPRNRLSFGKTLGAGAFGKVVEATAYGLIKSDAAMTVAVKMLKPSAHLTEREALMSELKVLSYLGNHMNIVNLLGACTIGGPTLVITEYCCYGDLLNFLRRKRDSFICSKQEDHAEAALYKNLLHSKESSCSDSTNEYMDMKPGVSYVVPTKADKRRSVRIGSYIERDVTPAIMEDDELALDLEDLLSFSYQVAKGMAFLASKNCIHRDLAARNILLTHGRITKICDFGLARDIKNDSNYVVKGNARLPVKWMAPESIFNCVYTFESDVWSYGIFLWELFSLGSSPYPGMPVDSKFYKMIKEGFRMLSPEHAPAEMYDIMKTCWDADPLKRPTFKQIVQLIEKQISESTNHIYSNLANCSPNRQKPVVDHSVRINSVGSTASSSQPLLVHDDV

Structure (SMILES): C=C(C)COC(=O)Nc1cc(C)c(Oc2ccnc3cc(OC)c(OC)cc23)cc1C [Example 405, 2-Methylallyl N-{4-[(6,7-dimethoxy-4-quinolyl)oxy]-2,5-dimethylphenyl}carbamate]
- IC50 (c-kit; 50 ng/ml h-SCF): 126 nM
- IC50 (PDGF-Ra): 46 nM

Structure (SMILES): COc1cc2nccc(Oc3cc(C)c(NC(=O)Oc4ccc(C(C)(C)C)cc4)cc3C)c2cc1OC [Example 274, 4-(Tert-butyl)phenyl N-{4-[(6,7-dimethoxy-4-quinolyl)oxy]-2,5-dimethylphenyl}carbamate]
- IC50 (c-kit; h-SCF 50 ng/ml): 399 nM
- IC50 (PDGF-Ra; Pharmacological Test Example 1): 25 nM

Structure (SMILES): COc1cc2nccc(Oc3cc(C)c(NC(=O)OCCCOc4ccc(Cl)cc4)cc3C)c2cc1OC [Example 29, 3-(4-Chlorophenoxy)propyl N-{4-[(6,7-dimethoxy-4-quinolyl)oxy]-2,5-dimethylphenyl}carbamate]
- IC50 (c-kit; h-SCF 50 ng/ml): 121 nM
- IC50 (PDGF-Ra; Pharmacological Test Example 1): 27 nM

Structure (SMILES): COc1cc2nccc(Oc3cc(C)c(NC(=O)Oc4c(OC)cccc4OC)cc3C)c2cc1OC [Example 281, 2,6-Dimethoxyphenyl N-{4-[(6,7-dimethoxy-4-quinolyl)oxy]-2,5-dimethylphenyl}carbamate]
- IC50 (c-kit; h-SCF 50 ng/ml): 268 nM
- inhibition at 0.1 µM (PDGF-Ra; [1]): 49%
- IC50 (PDGF-Ra; Pharmacological Test Example 1): > 100 nM

Structure (SMILES): COc1cc2nccc(Oc3ccc(NC(=O)OCCSc4ccc(C)cc4)c(C)c3C)c2cc1OC [Example 138, 3-[(4-Methylphenyl)sulfanyl]ethyl N-{4-[(6,7-dimethoxy-4-quinolyl)oxy]-2,3-dimethylphenyl}carbamate]
- IC50 (c-kit; h-SCF 50 ng/ml): 74 nM
- IC50 (PDGF-Ra; Pharmacological Test Example 1): 17 nM

Structure (SMILES): COc1cc2ncnc(Oc3ccc(NC(=O)OCC4CCCCCC4)cc3)c2cc1OC [Example 351, Cycloheptylmethyl N-{4-[(6,7-dimethoxy-4-quinazolinyl)oxy]phenyl}carbamate]
- IC50 (c-kit; h-SCF 50 ng/ml): 64 nM
- IC50 (PDGF-Ra; Pharmacological Test Example 1): < 10 nM

Structure (SMILES): COc1cc2nccc(Oc3ccc(NC(=O)Oc4ccc(C(C)(C)C)cc4)cc3)c2cc1OC [Example 259, 4-(Tert-butyl)phenyl N-{4-[(6,7-dimethoxy-4-quinolyl)oxy]phenyl}carbamate]
- IC50 (c-kit; h-SCF 50 ng/ml): 184 nM
- IC50 (PDGF-Ra; Pharmacological Test Example 1): 34 nM

Structure (SMILES): C=C(C)COC(=O)Nc1ccc(Oc2ccnc3cc(OC)c(OC)cc23)cc1 [Example 404, 2-Methylallyl N-{4-[(6,7-dimethoxy-4-quinolyl)oxy]phenyl}carbamate]
- IC50 (c-kit; 50 ng/ml h-SCF): 81 nM
- IC50 (PDGF-Ra): < 10 nM

Structure (SMILES): COc1cc2nccc(Oc3ccc(NC(=S)NCCN(C)C)c(C)c3C)c2cc1OC [Example 542, N-{4-[(6,7-Dimethoxy-4-quinolyl)oxy]-2,3-dimethylphenyl}-N′-(2-dimethylaminoethyl)thiourea]
- IC50 (c-kit; 50 ng/ml h-SCF): 442 nM
- IC50 (PDGF-Ra): > 100 nM
- inhibition at 0.1 µM (PDGF-Ra; [2]): 45%

Structure (SMILES): COc1cc2nccc(Oc3ccc(NC(=O)OCCC4CCCCC4)c(C)c3C)c2cc1OC [Example 355, 2-Cyclohexylethyl N-{4-[(6,7-dimethoxy-4-quinolyl)oxy]-2,3-dimethylphenyl}carbamate]
- IC50 (c-kit; h-SCF 50 ng/ml): 252 nM
- IC50 (PDGF-Ra; Pharmacological Test Example 1): 24 nM

Structure (SMILES): COc1cc2nccc(Oc3ccc(NC(=O)NC4CC(C)(C)NC(C)(C)C4)cc3)c2cc1OC [Example 562, N-{4-[(6,7-Dimethoxy-4-quinolyl)oxy]-phenyl}-N′-(2,2,6,6-tetramethyl-4-piperidyl)urea]
- inhibition at 1 µM (c-kit; [3]): 27%
- IC50 (PDGF-Ra): 80 nM

Structure (SMILES): CCCC(CCN1CCOCC1)OC(=O)Nc1ccc(Oc2ccnc3cc(OC)c(OC)cc23)c(C)c1C (centres unmarked) [Example 439, 1-(2-Morpholinoethyl)butyl N-{4-[(6,7-dimethoxy-4-quinolyl)oxy]-2,3-dimethylphenyl}carbamate]
- IC50 (c-kit; 50 ng/ml h-SCF): 224 nM
- IC50 (PDGF-Ra): 52 nM

Structure (SMILES): COc1cc2nccc(Oc3ccc(NC(=O)Oc4cccc(C#N)c4)c(C)c3C)c2cc1OC [Example 459, 3-Cyanophenyl N-{4-[(6,7-dimethoxy-4-quinolyl)oxy]-2,3-dimethylphenyl}carbamate]
- IC50 (c-kit; 50 ng/ml h-SCF): < 30 nM
- IC50 (PDGF-Ra): 47 nM

Structure (SMILES): COc1cc2nccc(Oc3cc(C)c(NC(=S)NCCN4CCCC4)cc3C)c2cc1OC [Example 541, N-{4-[(6,7-Dimethoxy-4-quinolyl)oxy]-2,5-dimethylphenyl}-N′-[2-(1-pyrrolidinyl)ethyl]thiourea]
- IC50 (c-kit; 50 ng/ml h-SCF): 794 nM
- IC50 (PDGF-Ra): 70 nM

Structure (SMILES): COc1cc2ncnc(Oc3ccc(NC(=O)OCCSc4ccc(C)cc4)c(Cl)c3)c2cc1OC [Example 141, 3-[(4-Methylphenyl)sulfanyl]ethyl N-{2-chloro-4-[(6,7-dimethoxy-4-quinazolinyl)oxy]phenyl}carbamate]
- inhibition at 1 µM (c-kit; figure in parentheses in −( )): 26%
- IC50 (PDGF-Ra; Pharmacological Test Example 1): 36 nM

Structure (SMILES): COc1cc2ncnc(Oc3ccc(NC(=O)OC(C)c4ccc(C)cc4)c(Cl)c3)c2cc1OC (centres unmarked) [Example 136, 1-(4-Methylphenyl)ethyl N-{2-chloro-4-[(6,7-dimethoxy-4-quinazolinyl)oxy]phenyl}carbamate]
- inhibition at 1 µM (c-kit; figure in parentheses in −( )): 7%
- IC50 (PDGF-Ra; Pharmacological Test Example 1): 43 nM

Structure (SMILES): COc1cc2nccc(Oc3ccc(NC(=O)OC4CCOCC4)c(C)c3C)c2cc1OC [Example 472, Tetrahydro-2H-4-pyranyl N-{4-[(6,7-dimethoxy-4-quinolyl)oxy]-2,3-dimethylphenyl}carbamate]
- IC50 (c-kit; 50 ng/ml h-SCF): 67 nM
- IC50 (PDGF-Ra): 31 nM

Continued, values first:

- inhibition at 1 µM (c-kit; figure in parentheses in −( )): 27%
- IC50 (PDGF-Ra): 53 nM
Structure (SMILES): COc1cc2nccc(Oc3ccc(NC(=S)NC(=O)c4ccc(CCl)cc4)c(F)c3)c2cc1OC [Example 996, N-[4-(Chloromethyl)benzoyl]-N′-{4-[(6,7-dimethoxy-4-quinolyl)oxy]-2-fluorophenyl}thiourea]

- inhibition at 1 µM (c-kit; figure in parentheses in −( )): 39%
- IC50 (PDGF-Ra): 95 nM
Structure (SMILES): COc1cc2nccc(Oc3ccc(NCCCOc4ccccc4C)c(C)c3C)c2cc1OC [Example 890, N-{4-[(6,7-Dimethoxy-4-quinolyl)oxy]-2,3-dimethylphenyl}-N-[3-(2-methylphenoxy)propyl]amine]

- IC50 (c-kit; 50 ng/ml h-SCF): 937 nM
- IC50 (PDGF-Ra): 21 nM
Structure (SMILES): COc1cc2nccc(Oc3ccc(NC(=S)NC(=O)C4CCCO4)cc3)c2cc1OC (centres unmarked) [Example 765, N-{4-[(6,7-Dimethoxy-4-quinolyl)oxy]phenyl}-N′-tetrahydro-2-furanylcarbonylthiourea]

- IC50 (c-kit; 50 ng/ml h-SCF): 209 nM
- IC50 (PDGF-Ra): 17 nM
Structure (SMILES): COc1cc2ncnc(Oc3ccc(NC(=S)NCc4ccccc4)cc3)c2cc1OC [Example 707, N-Benzyl-N′-{4-[(6,7-dimethoxy-4-quinazolinyl)oxy]phenyl}thiourea]

- IC50 (c-kit; h-SCF stimulation): 450 nM
- IC50 (PDGF-Ra): < 10 nM
Structure (SMILES): CCCC(C)C(=O)NC(=S)Nc1ccc(Oc2ncnc3cc(OC)c(OC)cc23)cc1 (centres unmarked) [Example 1201, N-{4-[(6,7-Dimethoxy-4-quinazolinyl)oxy]phenyl}-N′-(2-methylpentanoyl)thiourea]

- inhibition at 1 µM (c-kit; figure in parentheses in −( )): 26%
- IC50 (PDGF-Ra): 13 nM
Structure (SMILES): COc1cc2ncnc(Oc3ccc(NC(=S)NC(=O)CCc4cccc(C)c4)cc3)c2cc1OC [Example 1185, N-{4-[(6,7-Dimethoxy-4-quinazolinyl)oxy]phenyl}-N′-[3-(3-methylphenyl)propanoyl]thiourea]

- inhibition at 1 µM (c-kit; [3]): 41%
- IC50 (PDGF-Ra): 12 nM
Structure (SMILES): COc1cc2nccc(Oc3ccc(NC(=S)NC(=O)C4(C)CC4(Cl)Cl)cc3)c2cc1OC (centres unmarked) [Example 749, N-[(2,2-Dichloro-1-methylcyclopropyl)carbonyl]-N′-{4-[(6,7-dimethoxy-4-quinolyl)oxy]phenyl}thiourea]

- inhibition at 1 µM (c-kit; figure in parentheses in −( )): 27%
- IC50 (PDGF-Ra): > 100 nM
- inhibition at 0.1 µM (PDGF-Ra; [1]): 47%
Structure (SMILES): COc1cc2nccc(Oc3cc(C)c(NCCCOc4ccccc4)cc3C)c2cc1OC [Example 886, N-{4-[(6,7-Dimethoxy-4-quinolyl)oxy]-2 5-dimethylphenyl}-N-(3-phenoxypropyl)amine]

- inhibition at 1 µM (c-kit; figure in parentheses in −( )): 20%
- IC50 (PDGF-Ra): 17 nM
Structure (SMILES): COc1cc2ncnc(Oc3ccc(OCCCn4ccc5ccccc54)cc3)c2cc1OC [Example 811, 4-{4-[3-(1H-1-Indolyl)propoxy]phenoxy}-6,7-dimethoxyquinazoline]

- IC50 (c-kit; h-SCF stimulation): 716 nM
- IC50 (PDGF-Ra): 25 nM
Structure (SMILES): CCCC(C)C(=O)NC(=S)Nc1ccc(Oc2ccnc3cc(OC)c(OC)cc23)c(Cl)c1 (centres unmarked) [Example 1200, N-{3-Chloro-4-[(6,7-dimethoxy-4-quinolyl)oxy]phenyl}-N′-(2-methylpentanoyl)thiourea]

- inhibition at 1 µM (c-kit; [3]): 29%
- IC50 (PDGF-Ra): > 100 nM
- inhibition at 0.1 µM (PDGF-Ra; [2]): 20%
Structure (SMILES): COc1cc2nccc(Oc3ccc(NC(=O)NC4CCN(Cc5ccc(C(C)(C)C)cc5)C4)cc3)c2cc1OC (centres unmarked) [Example 582, N-{1-[4-(Tert-butyl)benzyl]tetrahydro-1H-3-pyrrolyl}-N′-{4-[(6,7-dimethoxy-4-quinolyl)oxy]phenyl}urea]

- inhibition at 1 µM (c-kit; [3]): 41%
- IC50 (PDGF-Ra): 22 nM
Structure (SMILES): CCCCN(CCCC)CCNC(=O)Nc1ccc(Oc2ncnc3cc(OC)c(OC)cc23)cc1 [Example 685, N-[2-(Dibutylamino)ethyl]-N′-{4-[(6,7-dimethoxy-4-quinazolinyl)oxy]phenyl}urea]

- IC50 (c-kit; 50 ng/ml h-SCF): > 1000 nM
- inhibition at 1 µM (c-kit; [3]): 20%
- IC50 (PDGF-Ra): > 100 nM
- inhibition at 0.1 µM (PDGF-Ra; [2]): 35%
Structure (SMILES): COc1cc2nccc(Oc3ccc(NC(=S)NC(=O)c4ccc(Br)s4)c(C)c3)c2cc1OC [Example 692, N-[(5-Bromo-2-thienyl)carbonyl]-N′-{4-[(6,7-dimethoxy-4-quinolyl)oxy]-2-methylphenyl}thiourea]

- IC50 (c-kit; h-SCF stimulation): 141 nM
- IC50 (PDGF-Ra): 11 nM
Structure (SMILES): COc1cc2nccc(Oc3ccc(NC(=S)NC(=O)Cc4ccccc4)c(F)c3)c2cc1OC [Example 1024, N-{4-[(6,7-Dimethoxy-4-quinolyl)oxy]-2-fluorophenyl}-N′-(2-phenylacetyl)thiourea]

From patent US7135466B2 (Kirin Beer Kabushiki Kaisha, priority 1999, dated 2006)
